target: T1, P. vivax FPPS (farnesyl diphosphate synthase) (Plasmodium vivax, UniProt A5K4U6); assay: P. vivax FPPS inhibition, continuous spectrophotometric phosphate release assay; format: biochemical; conditions: pIC50 (enzyme)
T1 sequence (A5K4U6 1-375): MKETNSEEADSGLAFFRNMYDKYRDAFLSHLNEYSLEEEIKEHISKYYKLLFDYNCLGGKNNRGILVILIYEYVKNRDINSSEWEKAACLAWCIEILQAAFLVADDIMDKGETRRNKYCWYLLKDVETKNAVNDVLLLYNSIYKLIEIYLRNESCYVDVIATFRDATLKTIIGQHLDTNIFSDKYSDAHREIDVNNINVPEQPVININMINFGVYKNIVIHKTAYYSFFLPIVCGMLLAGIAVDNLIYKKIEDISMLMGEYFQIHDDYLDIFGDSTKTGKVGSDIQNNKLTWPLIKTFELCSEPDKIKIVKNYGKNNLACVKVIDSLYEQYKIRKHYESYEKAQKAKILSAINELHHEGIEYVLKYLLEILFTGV

Compound `O=P(O)(O)C(O)(Cc1ccccn1)P(=O)(O)O` [Compound 26] has an IC50 of 1000 nM.

same assay, conditions: pIC50 (enzyme), FPPS from Plasmodium vivax; pIC50 = −log10 IC50

`O=P(O)(O)C(O)(Cc1cccc(C(F)(F)F)c1)P(=O)(O)O` [Compound 5] and `O=P(O)(O)C(O)(Cc1cccc(Br)c1)P(=O)(O)O` [Compound 11] are within 1.5-fold of each other in IC50: 631 nM for the first, 794 nM for the second.

`CN(Cc1ccccc1)C(P(=O)(O)O)P(=O)(O)O` [Compound 24] and `O=P(O)(O)C(Nc1nccs1)P(=O)(O)O` [Compound 19] are the same in IC50: 794 nM for the first, 794 nM for the second.

Compound `CCCCCCCCCC(O)(P(=O)(O)O)P(=O)(O)O` [Compound 4] has an IC50 of 794 nM.

tested on: Plasmodium falciparum; assay: not given; conditions: P. falciparum growth inhibition; cited from earlier work

Going from `Cc1ccc(C)c(COc2ccc(C)nc2NC(P(=O)(O)O)P(=O)(O)O)c1` [Compound 25] to `O=P(O)(O)C(Nc1ccc(Cl)cn1)P(=O)(O)O` [Compound 8], the “pIC50 (cell)” value rises from 3.7 to 5.0.

First: O=P(O)(O)C(O)(Cc1ccccc1)P(=O)(O)O [Compound 9]
Second: O=P(O)(O)C(O)(Cc1cccc(F)c1)P(=O)(O)O [Compound 7]
The “pIC50 (cell)” value of the first is lower: 5.0 for the first, 5.2 for the second.

`O=P(O)(O)C(O)(CSc1ccncc1)P(=O)(O)O` [Compound 22] and `O=P(O)(O)C(O)(Cc1ccccn1)P(=O)(O)O` [Compound 26] are within 0.2 log units of each other in “pIC50 (cell)” value: 3.8 for the first, 3.7 for the second.

Going from `CCCCCCCCCCCCCC(O)(P(=O)(O)O)P(=O)(O)O` [Compound 2] to `CCCCCCC(O)(P(=O)(O)O)P(=O)(O)O` [Compound 1], the “pIC50 (cell)” value rises from 5.7 to 5.9.

`O=P(O)(O)C(O)(Cc1cccc(C(F)(F)F)c1)P(=O)(O)O` [Compound 5] and `O=P(O)(O)C(O)(Cc1cccc(Cl)c1)P(=O)(O)O` [Compound 6] are the same in “pIC50 (cell)” value: 5.4 for the first, 5.4 for the second.

Going from `CN(Cc1ccccc1)C(P(=O)(O)O)P(=O)(O)O` [Compound 24] to `CN(CCCc1ccccc1)CCC(O)(P(=O)(O)O)P(=O)(O)O` [Compound 13], the “pIC50 (cell)” value rises from 3.7 to 4.6.

In the case of `CN(CCCCc1ccccc1)CCC(O)(P(=O)(O)O)P(=O)(O)O` [Compound 3], the “pIC50 (cell)” value is listed as 5.5.

same assay, conditions: read-out: IC50 (cell); P. falciparum growth inhibition; cited from earlier work

Going from `O=P(O)(O)C(Nc1ccc(Cl)cn1)P(=O)(O)O` [Compound 8] to `CN(CCCc1ccccc1)CCC(O)(P(=O)(O)O)P(=O)(O)O` [Compound 13], the IC50 rises from 11000 nM to 23000 nM (2.1-fold). The first is the more potent here.

In the case of `CN(CCCCc1ccccc1)CCC(O)(P(=O)(O)O)P(=O)(O)O` [Compound 3], the IC50 is given as 2900 nM.
